Values joined by “and” are separate entries in the source; they are usually repeats but may differ in a detail not shown here. Equal values may be shown once.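 The compound was tested at five concentrations on cells cultured in 96-well plates, with a 48-hour exposure period. The concentration for 50% growth inhibition is given as GI50. TGI denotes the concentration required for complete inhibition of growth.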

Holding throughout (experiment): inhibition of tumour cell growth, NCI panel, 48 h
Assay [1] relates to A549 NSCLC.
Assay [2] deals with MDA-MB-435.
The subject of assay [3] is SK-MEL-2 melanoma.
Assay [4] relates to SW-620 colon.
Assay [5] relates to TK-10 renal.
The test system of assay [6] is ACHN renal.
Assay [7] relates to NCI-H522 lung.
Assay [8] relates to OVCAR-3 ovarian.
The test system of assay [9] is LOX IMVI melanoma.
Assay [10] relates to HT29 colon.

As to `COc1cccc(Nc2nc3ccccc3c3occc23)c1`, the GI50 in [1] is 6010 nM; in assay [2], 10700 nM; in assay [3], 13000 nM; in [4], 16700 nM; in assay [5] it was 5790 nM; in assay [6], 10800 nM. In addition, the GI50 is 9300 nM in assay [7], 9100 nM in assay [8] and 2320 nM in [9]. Besides, the TGI in [1] was determined as 22400 nM; in assay [2], 22600 nM; in assay [3], 30600 nM; in [4] it was 34300 nM; in assay [5] it was 17200 nM; in assay [6], 33600 nM. The TGI in [7] amounted to 27000 nM; in assay [8] it was 21200 nM; in [9], 8390 nM.
Consider `CC(=O)c1cc(C(=O)c2ccc3c(c2)Sc2ccccc2N3)n2ccccc12`, for which the GI50 is 6.13 nM and 3.32 nM in assay [1]; 1.8 nM and < 3.32 nM in assay [2]; 4.77 nM in assay [3]; 3.63 nM and 3.32 nM in assay [4]; 5.45 nM in assay [6]; 1.77 nM in assay [7]. Besides, the GI50 in assay [10] is 3.5 nM and 3.32 nM; in [8], 3.65 nM; in assay [9], 5.87 nM and 3.32 nM. Further, the TGI in [1] is over 33200 nM; in [2] it was 4.53 nM and < 3.32 nM; in assay [4], over 33200 nM; in assay [7], 5.17 nM; in assay [9], over 33200 nM.
`O=C1C=CC(=O)c2c(O)c3c(c(O)c21)C[C@H](O)[C@H](O)[C@@H]3O`: the TGI was 9390 nM in [1]; 3130 nM in assay [2]; 3430 nM in [3]; 2370 nM in assay [4]; 3270 nM in [5]; 8000 nM in assay [6]. The TGI was 5830 nM in [10], 3880 nM in [8] and 4080 nM in assay [9].
Take `O=c1c(Cl)c(Cl)cnn1CCCl`: the TGI is 35300 nM in assay [1]; 10600 nM in assay [2]; 3890 nM in assay [4]; 30300 nM in assay [5]; 2350 nM in [6]; 1120 nM in [7]. The TGI was found to be 10800 nM in assay [10], 11900 nM in assay [8] and 14300 nM in [9].
Turning to `COc1ccc(OC)c(/C=N/N=C(\N)NO)c1`, the TGI in [1] is over 100000 nM; in assay [3], over 100000 nM; in assay [4], over 100000 nM; in assay [5], 56000 nM; in assay [6], 81400 nM; in [7], 35000 nM. Also, the TGI in assay [10], in assay [8] and in [9] was over 100000 nM each time.
As to `COc1ccc([C@@]23Oc4cc(OC)cc(OC)c4[C@]2(O)[C@H](O)[C@H](C(N)=O)[C@H]3c2ccccc2)cc1`, the TGI was 79.3 nM and 631 nM in [2]; 55.6 nM and 73.8 nM in [3]; 101 nM and 36.7 nM in [5]; 47.4 nM and 47.6 nM in assay [6]; 73.7 nM and < 10.4 nM in [7]; 65.9 nM and 51.5 nM in assay [10]. Further, the TGI in assay [8] was 101 nM and 284 nM. The GI50 in assay [3] was under 14.7 nM; in assay [5], 27.8 nM; in assay [8], under 12.9 nM.
Consider `CCN(CC)CCCC(C)N/C(=C1\C(=O)NC(=O)\C1=C(/NC(C)CCCN(CC)CC)c1cccc(OC)c1)c1cccc(OC)c1` (configuration not stated), for which the GI50 in assay [1] was 819 nM; in assay [2], 803 nM; in [3], 947 nM; in [4], 512 nM; in assay [6] it was 393 nM; in [7] it was 755 nM. The results for the GI50 in assay [10], in [8] and in assay [9] were 372 nM, 1120 nM and 676 nM, respectively. In addition, the TGI in assay [1] came to 1800 nM; in assay [2] it was 1520 nM; in assay [3], 1800 nM; in assay [4], 3650 nM; in assay [6] it was 2160 nM; in assay [7], 1690 nM. For the same compound, the TGI in assay [10] turned out to be 2010 nM; in [8] it was 3200 nM; in [9] it was 1490 nM.
As to `CC(=O)[C@H]1CCC2[C@@H]3CC=C4C[C@@H]([O-])CC[C@]4(C)C3CC[C@@]21C.CC(=O)[C@H]1CCC2[C@@H]3CC=C4C[C@@H]([O-])CC[C@]4(C)C3CC[C@@]21C.CC(=O)[CH-]C(=O)c1ccccc1.CC(=O)[CH-]C(=O)c1ccccc1.Cl.[Ti+4]` (some centres not stated), the GI50 in [1] was 23600 nM; in assay [3], 14700 nM; in assay [4], 39000 nM; in [5], 40700 nM; in assay [6], 22800 nM; in assay [7], 20300 nM. The GI50 was 14200 nM in assay [10], 39500 nM in assay [8] and 29000 nM in assay [9]. The TGI is over 100000 nM in [1]; 31000 nM in assay [3]; over 100000 nM in assay [4]; over 100000 nM in [5]; 99100 nM in assay [6]; 66500 nM in assay [7]. Besides, the TGI in assay [10], in assay [8] and in [9] was over 100000 nM throughout.
For the compound `O=C(/C=C/c1cccc([N+](=O)[O-])c1)c1ccc([N+](=O)[O-])cc1`, the TGI in assay [1], in [3], in assay [4], in [5], in assay [6] and in assay [7] was over 100000 nM throughout. The TGI in assay [10], in assay [8] and in assay [9] was over 100000 nM throughout.
Regarding `CC(C)CCCCCCCCCCCCC(=O)NCC(=O)NC1C(O)C(O)C(Nc2ncnc3nc[nH]c23)OC1C(O)CO` (configuration not stated), the TGI is 7.87 nM and 53.7 nM and 32.7 nM in [1]; 11.7 nM and 38.9 nM and 10.7 nM in assay [3]; 10.9 nM and 66.6 nM and 14.8 nM in [10]; 1.89 nM and 2.79 nM and 5.09 nM in [8]. For the same compound, the GI50 in [2] was under 0.01 nM; in [3], under 0.01 nM; in [4], 0.756 nM and 5 nM; in assay [5], under 0.01 nM; in [6], under 0.01 nM.
Consider `C/C=C1/CC(C)C(C)(O)C(=O)OCC2C(O)CN3CCC(OC1=O)C23` (configuration not stated), for which the TGI in assay [1], in assay [2], in assay [3], in assay [4], in [5] and in [6] was over 100000 nM each time. Also, the TGI in assay [7], in assay [10] and in [9] was over 100000 nM throughout.

The record behind these values is PubChem BioAssay (NCI).
